Reference: patent US20110256121A1, “METHODS AND KITS FOR DIAGNOSING OR MONITORING AUTOIMMUNE AND CHRONIC INFLAMMATORY DISEASES” (THE REGENTS OF THE UNIVERSITY OF MICHIGAN, priority 2008, published 2011)

Tested on: KIR2DL4
Experiment: Cell stimulation with immobilized anti-KIR2DL4 and IFN-γ quantitation (Example 15)
Format: cell-based, human
Settings: without anti-KIR2DL4 crosslinking, p<0.001
Procedure: Cell stimulation and IFN-γ quantitation. Anti-human KIR2DL4 (R&D systems) or isotype matched control (10 μg/ml in PBS) were added to 24 well plates, incubated 6 hours 37° C., then the wells were washed twice with PBS to remove unbound antibody. 2×10^5 T cells were then added to the coated wells in RPMI 1640 supplemented with 10% FBS and cultured for 20 hours. The supernatant was then recovered and IFN-γ levels measured using a human IFN-γ ELISA kit (R&D Systems).
KIR function in 5-azaC treated T cells. It was determined if 5-azaC induced KIR2DL4 stimulates IFN-γ in T cells. PBMC were stimulated with PHA for 18 hours, treated with 5-azaC, then 72 hours later CD4+ and CD8+ cells were isolated, stimulated for 6 hours with immobilized anti-KIR2DL4 or an isotype matched antibody, then IFN-γ was measured in the supernatant by ELISA.

In the case of `Nc1ncn([C@@H]2O[C@H](CO)[C@@H](O)[C@H]2O)c(=O)n1` [5-azaC, 5-azacytidine], the “IFN-γ secretion by 5-azaC treated CD4+ and CD8+ T cells” value is reported as “secrete significant (p<0.001) amounts of IFN-γ”.
